Tests used:
Type in all cases: in vivo
[1] = test system: green foxtail (Setaria viridis L.); assay: Test Example 3: foliar treatment, comparison with reference compounds; conditions: 4.0 to 4.5 leaf stage; for inhibition at 3.5 g/ha / inhibition at 7 g/ha: Setaria viridis, 17th day after application, read-out: Growth inhibition rate (%) (17th day after application) Green foxtail
Source text: (§1) Upland field soil was put into a 1/1,000,000 hectare pot, and seeds of various plants were sown. […] The spray solutions thus prepared were applied for foliar treatment by a small sprayer.

[2] = test system: velvetleaf (Abutilon theophrasti MEDIC.); assay: as above; conditions: 3.3 to 4.3 leaf stage; for inhibition at 15 g/ha: Abutilon theophrasti, 22nd day after application, read-out: Growth inhibition rate (%) (22nd day after application) Velvet leaf
Source text: as §1

[3] = test system: guineagrass (Panicum maximum Jacq.); assay: as above; conditions: 3.5 to 4.3 leaf stage; for inhibition at 3.5 g/ha: Megathyrsus maximus, 18th day after application, read-out: Growth inhibition rate (%) (18th day after application) Guineagrass
Source text: as §1

[4] = test system: corn (Zea mays L.); assay: as above; conditions: 4.0 to 4.3 leaf stage, crop
Source text: as §1

[5] = test system: rice (Oryza sativa L.) (var.: Nihonbare); assay: Test Example 4: paddy field pot, water application, transplanted rice; conditions: 63 g/ha, 21st day after application, crop
Source text: (§2) Paddy field soil was put into a 1/1,000,000 hectare pot, and seeds of barnyardgrass (Echinochloa oryzicola vasing.) and Japanese bulrush (Scirpus juncoides) were sown and lightly covered with soil. Then, pot was left to stand in a greenhouse in a state irrigated to a water depth of from 0.5 to 1 cm, and next day or two days later, tubers of Japanese ribbon waparo (Sagittaria pygmaea) were planted. Then, the irrigated water depth was maintained to be from 3 to 4 cm, and when barnyardgrass and Japanese bulrush reached 0.5 leaf stage, and Japanese ribbon waparo reached primary leaf stage, a water diluted solution of a wettable powder or an emulsifieable concentrate of the compound of the present invention prepared in accordance with a conventional preparation method, was uniformly dropwise applied by a pipette so that the amount of active ingredients would be a prescribed amount. Further, paddy field soil was put into a 1/1,000,000 pot, followed by soil puddling to an irrigated water depth of from 3 to 4 cm. Next day, rice (Oryza sativa L.) (var.: Nihonbare) of two leaf stage was transplanted in a transplantation depth of 3 cm. On the 4th day after transplantation, the compound of the present invention was applied in the same manner as described above.

[6] = test system: rice (Oryza sativa L.); assay: Test Example 1: foliar treatment, upland pot; conditions: 21st day after application, crop
Source text: (§3) Upland field soil was put into a 1/170,000 hectare pot, and seeds of various plants were sown. When the respective plants reached predetermined leaf stage ((1) barnyardgrass (Echinochloa crus-galli L.): 1.0 to 3.3 leaf stage, (2) crabgrass (Digitaria sanguinalis L.): 1.2 to 3.0 leaf stage, (3) green foxtail (Setaria viridis L.): 1.5 to 3.3 leaf stage, (4) redroot pigweed (Amaranthus retroflexus L.): 0.1 to 2.0 leaf stage, (5) prickly sida (Sida spinosa L.): cotyledon stage to 2.0 leaf stage, (6) velvetleaf (Abutilon theophrasti MEDIC.): 0.1 to 2.0 leaf stage, (7) rice (Oryza sativa L.): 1.3 to 3.0 leaf stage, (8) corn (Zea mays L.): 2.5 to 3.4 leaf stage, and (9) soybean (Glycine max Merr.): primary leaf stage to 0.3 leaf stage), wettable powders or emulsifiable concentrates of the compounds of the present invention prepared in accordance with a conventional preparation method, were weighed so that the active ingredients became the prescribed amounts, and diluted with water in an amount corresponding to 500 liter per 1 hectare (containing 0.1 vol % of an agricultural spreader (“KUSARINOH”, manufactured by NIHON NOHYAKU CO., LTD.)). The spray solutions thus prepared were applied for foliar treatment by a small sprayer.

[7] = test system: corn (Zea mays L.); assay: Test Example 1: foliar treatment, upland pot; conditions: 21st day after application, crop
Source text: as §3

[8] = test system: soybean (Glycine max Merr.); assay: Test Example 1: foliar treatment, upland pot; conditions: 21st day after application, crop
Source text: as §3

[9] = test system: crabgrass (Digitaria sanguinalis L.); assay: Test Example 1: foliar treatment, upland pot; conditions: 21st day after application
Source text: as §3

[10] = test system: barnyardgrass (Echinochloa crus-galli L.); assay: Test Example 1: foliar treatment, upland pot; conditions: 21st day after application
Source text: as §3

[11] = test system: green foxtail (Setaria viridis L.); assay: Test Example 1: foliar treatment, upland pot; conditions: 21st day after application
Source text: as §3

[12] = test system: prickly sida (Sida spinosa L.); assay: Test Example 1: foliar treatment, upland pot; conditions: 21st day after application
Source text: as §3

[13] = test system: redroot pigweed (Amaranthus retroflexus L.); assay: Test Example 1: foliar treatment, upland pot; conditions: 21st day after application
Source text: as §3

[14] = test system: rice (Oryza sativa L.); assay: Test Example 2: soil application on the day after sowing; conditions: 250 g/ha, 19th to 22nd day after application, crop
Source text: (§4) Upland field soil was put into a 1/170,000 hectare pot, and seeds of various plants (barnyardgrass (Echinochloa crus-galli L.), crabgrass (Digitaria sanguinalis L.), green foxtail (Setaria viridis L.), redroot pigweed (Amaranthus retroflexus L.), prickly sida (Sida spinosa L.), velvetleaf (Abutilon theophrasti MEDIC.), rice (oryza sativa L.), corn (Zea mays L.) and soybean (Glycine max Merr.)) were sown. On the day after sowing, wettable powders or emulsifiable concentrates of the compounds of the present invention prepared in accordance with a conventional preparation method, were weighed so that the active ingredients became the prescribed amounts, and diluted with water in an amount corresponding to 500 liter per 1 hectare, followed by soil application with a small sprayer.

[15] = test system: corn (Zea mays L.); assay: as above; conditions: 250 g/ha, 19th to 22nd day after application, crop
Source text: as §4

[16] = test system: soybean (Glycine max Merr.); assay: as above; conditions: 250 g/ha, 19th to 22nd day after application, crop
Source text: as §4

[17] = test system: crabgrass (Digitaria sanguinalis L.); assay: as above; conditions: 250 g/ha, 19th to 22nd day after application
Source text: as §4

[18] = test system: barnyardgrass (Echinochloa crus-galli L.); assay: as above; conditions: 250 g/ha, 19th to 22nd day after application
Source text: as §4

[19] = test system: green foxtail (Setaria viridis L.); assay: as above; conditions: 250 g/ha, 19th to 22nd day after application
Source text: as §4

[20] = test system: velvetleaf (Abutilon theophrasti MEDIC.); assay: as above; conditions: 250 g/ha, 19th to 22nd day after application
Source text: as §4

[21] = test system: prickly sida (Sida spinosa L.); assay: as above; conditions: 250 g/ha, 19th to 22nd day after application
Source text: as §4

[22] = test system: redroot pigweed (Amaranthus retroflexus L.); assay: as above; conditions: 250 g/ha, 19th to 22nd day after application
Source text: as §4

[23] = test system: velvetleaf (Abutilon theophrasti MEDIC.); assay: Test Example 1: foliar treatment, upland pot; conditions: 21st day after application
Source text: Upland field soil was put into a 1/170,000 hectare pot, and seeds of various plants were sown. […] The spray solutions thus prepared were applied for foliar treatment by a small sprayer.

[24] = test system: barnyardgrass (Echinochloa oryzicola vasing.); assay: Test Example 4: paddy field pot, water application; conditions: 63 g/ha, 14th day after application
Source text: as §2

[25] = test system: Japanese ribbon waparo (Sagittaria pygmaea); assay: Test Example 4: paddy field pot, water application; conditions: 63 g/ha, 14th day after application
Source text: as §2

[26] = test system: Japanese bulrush (Scirpus juncoides); assay: Test Example 4: paddy field pot, water application; conditions: 63 g/ha, 14th day after application
Source text: as §2

SMILES | Growth inhibition rate (%) Rice [5] | Growth inhibition rate (%) Rice ([6]; 7 g/ha) | Growth inhibition rate (%) Corn ([7]; 7 g/ha) | Growth inhibition rate (%) Soybean ([8]; 7 g/ha) | Growth inhibition rate (%) Crabgrass ([9]; 7 g/ha) | Growth inhibition rate (%) Barnyardgrass ([10]; 7 g/ha) | Growth inhibition rate (%) Green foxtail ([11]; 7 g/ha) | Growth inhibition rate (%) Prickly sida ([12]; 7 g/ha) | Growth inhibition rate (%) Redroot pigweed ([13]; 7 g/ha) | Growth inhibition rate (%) Rice [14] | Growth inhibition rate (%) Corn [15] | Growth inhibition rate (%) Soybean [16] | Growth inhibition rate (%) Crabgrass [17] | Growth inhibition rate (%) Barnyardgrass [18] | Growth inhibition rate (%) Green foxtail [19] | Growth inhibition rate (%) Velvetleaf [20] | Growth inhibition rate (%) Prickly sida [21] | Growth inhibition rate (%) Redroot pigweed [22] | Growth inhibition rate (%) Barnyardgrass [24] | Growth inhibition rate (%) Japanese ribbon waparo [25] | further results
CCn1ncc(C(=O)c2ccc(S(C)(=O)=O)c(OCCOC)c2Cl)c1O [Reference Compound 1] |  |  |  |  |  |  |  |  |  |  |  |  |  |  |  |  |  |  |  |  | inhibition at 3.5 g/ha ([1]; 3.5 g/ha): 35%; inhibition at 7 g/ha ([1]; 7 g/ha): 55%; inhibition at 15 g/ha [2]: 20%; inhibition at 3.5 g/ha [3]: 0%
COCCOc1c(S(C)(=O)=O)ccc(C(=O)c2cnn(C(C)C)c2O)c1Cl [Reference Compound 2] |  |  |  |  |  |  |  |  |  |  |  |  |  |  |  |  |  |  |  |  | inhibition at 120 g/ha ([4]; Zea mays, 21st day after application, read-out: Growth inhibition rate (%) (21st day after application) Corn): 28%; inhibition at 3.5 g/ha ([1]; 3.5 g/ha): 30%; inhibition at 7 g/ha ([1]; 7 g/ha): 45%; inhibition at 15 g/ha [2]: 40%; inhibition at 3.5 g/ha [3]: 0%
CCCOC(=O)OC(C)Oc1c(C(=O)c2ccc(S(C)(=O)=O)c(OCCOC)c2C)cnn1C (racemic) [compound 19] | 20% | 80% | 0% | 80% | 90% | 95% | 100% | 30% | 95% | 100% | 0% | 40% | 100% | 100% | 100% | 98% | 60% | 100% | 100% | 95% | Growth inhibition rate (%) Velvetleaf ([23]; 7 g/ha): 95%; Growth inhibition rate (%) Japanese bulrush [26]: 95%
CCOC(=O)OC(C)Oc1c(C(=O)c2ccc(S(C)(=O)=O)c(COC)c2C)cnn1C (racemic) [compound 7] | 70% | 70% | 0% | 95% | 90% | 95% | 90% | 80% | 85% | 90% | 0% | 0% | 90% | 100% | 40% | 70% | 80% | 80% | 100% | 60% | Growth inhibition rate (%) Velvetleaf ([23]; 7 g/ha): 98%; Growth inhibition rate (%) Japanese bulrush [26]: 70%
CCOC(=O)OC(C)Oc1c(C(=O)c2ccc(S(C)(=O)=O)c(OCCOC)c2C)cnn1C (stereo not shown) [Compound No. 2, 1-(4-(3-(2-methoxyethoxy)-2-methyl-4-(methylsulfonyl)benzoyl)-1-methyl-1H-pyrazol-5-yloxy)ethyl ethylcarbonate] | 50% | 80% | 0% | 80% | 95% | 100% | 95% | 40% | 100% | 98% | 0% | 0% | 100% | 100% | 100% | 60% | 70% | 100% | 100% | 95% | Growth inhibition rate (%) Rice ([6]; 63 g/ha): 70%; Growth inhibition rate (%) Corn ([7]; 63 g/ha): 0%; Growth inhibition rate (%) Soybean ([8]; 63 g/ha): 98%; Growth inhibition rate (%) Crabgrass ([9]; 63 g/ha): 100%; Growth inhibition rate (%) Barnyardgrass ([10]; 63 g/ha): 100%; Growth inhibition rate (%) Green foxtail ([11]; 63 g/ha): 100%; Growth inhibition rate (%) Prickly sida ([12]; 63 g/ha): 85%; Growth inhibition rate (%) Redroot pigweed ([13]; 63 g/ha): 100%; Growth inhibition rate (%) Velvetleaf ([23]; 63 g/ha): 100%; Growth inhibition rate (%) Japanese bulrush [26]: 60%; Growth inhibition rate (%) (21st day after application) Corn ([4]; 120 g/ha): 4%; Growth inhibition rate (%) (17th day after application) Green foxtail ([1]; 3.5 g/ha): 93%; Growth inhibition rate (%) (17th day after application) Green foxtail ([1]; 7 g/ha): 98%; Growth inhibition rate (%) (22nd day after application) Velvet leaf ([2]; 15 g/ha): 94%; Growth inhibition rate (%) (18th day after application) Guineagrass ([3]; 3.5 g/ha): 90%

From patent US8119569B2, “Benzoylpyrazole compounds, process for their production and herbicides containing them” (Ishihara Sangyo Kaisha, Ltd., priority 2006, dated 2012)
